Laboratory results published in patent US9169217B2, “Arylalkyl esters of 4-amino-6-(substituted phenyl)-picolinates and 6-amino-2-(substituted phenyl)-pyrimidinecarboxylates and their use as selective herbicides for crops” (Dow AgroSciences LLC, priority 2011, dated 2015).

Key:
Assay type in all cases: in vivo
[1] = system: Echinochloa colonum (L.) LINK (junglerice); test: Postemergence foliar-applied herbicidal activity in direct seeded rice (Example 16); settings: for GR50 / GR80 / GR90: ECHCO, probit analysis; for GR50: 50% growth reduction; for GR80: 80% growth reduction; for GR90: 90% growth reduction; for pest or weed control at 8.75 g/ha: Echinochloa colona, post-emergence, 504 h, rice cropping systems, 8.75 g ae/ha, 21 DAA, may represent multiple trials, read-out: Visual Injury (%) ECHCO
Procedure, shortened: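 Greenhouse plants at 2nd–3rd true leaf stage (10–17 d, ~29/26 °C, 14-h photoperiod) sprayed postemergence with ester forms in acetone–DMSO plus 1.25% crop oil concentrate at 187 L/ha. Visual injury scored 0–100% versus untreated plants after 3 weeks; GR50/GR80 derived by probit analysis.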

[2] = system: Brassica sinapis (Mustard, wild); test: Postemergence herbicidal activity in cereal crops (Example 14); settings: wheat cropping systems, postemergence spray, 35 g ae/ha, 21 DAA
Protocol: (§1) Seeds of the desired test plant species were planted in Sun Gro Metro-Mix® 360 planting mixture, which typically has a pH of 6.0 to 6.8 and an organic matter content of about 30 percent, in plastic pots with a surface area of 84.6 cm^2. When required to ensure good germination and healthy plants, a fungicide treatment and/or other chemical or physical treatment was applied. The plants were grown for 7-36 d in a greenhouse with an approximate 14 h photoperiod which was maintained at about 18° C. during the day and 17° C. during the night. Nutrients and water were added on a regular basis and supplemental lighting was provided with overhead metal halide 1000-Watt lamps as necessary. The plants were employed for testing when they reached the second or third true leaf stage.
(§2) Treatments consisted of esters of compounds 33, 34, 39, 40 and 42 and B, F, G and H. Compound B is methyl 4-amino-3-chloro-6-(4-cyclopropylphenyl)-5-fluoropicolinate; compound F is methyl 6-amino-2-(4-chloro-2-fluoro-3-methoxyphenyl)-5-methoxypyrimidine-4-carboxylate; compound G is methyl 4-amino-3-chloro-6-(4-chloro-2-fluoro-3-methoxyphenyl)picolinate; and compound H is methyl 4-amino-3-chloro-6-(4-chloro-2-fluoro-3-(1-fluoroethyl)phenyl)-5-fluoropicolinate. A weighed amount, determined by the highest rate to be tested, of each test compound was placed in a 25 mL glass vial and was dissolved in 8 mL of a 97:3 v/v mixture of acetone and DMSO to obtain concentrated stock solutions. […] The concentrated stock solutions obtained were diluted with 16 mL of an aqueous mixture containing acetone, water, isopropyl alcohol, DMSO, Agri-dex crop oil concentrate, and Triton® X-77 surfactant in a 64.7:26.0:6.7:2.0:0.7:0.01 v/v ratio to obtain spray solutions containing the highest application rates. Additional application rates were obtained by serial dilution of 12 mL of the high rate solution into a solution containing 4 mL of a 97:3 v/v mixture of acetone and DMSO and 8 mL of an aqueous mixture containing acetone, water, isopropyl alcohol, DMSO, Agri-dex crop oil concentrate, and Triton® X-77 surfactant in a 48.5:39.0:10.0:1.5:1.0:0.02 v/v ratio to obtain ½×, ¼×, ⅛× and 1/16× rates of the high rate. Compound requirements are based upon a 12 mL application volume at a rate of 187 L/ha. Formulated compounds were applied to the plant material with an overhead Mandel track sprayer equipped with 8002E nozzles calibrated to deliver 187 L/ha over an application area of 0.503 m^2 at a spray height of 18 inches (43 cm) above average plant canopy height. Control plants were sprayed in the same manner with the blank.
(§3) The treated plants and control plants were placed in a greenhouse as described above and watered by sub-irrigation to prevent wash-off of the test compounds. After 20-22 d, the condition of the test plants as compared with that of the untreated plants was determined visually and scored on a scale of 0 to 100 percent where 0 corresponds to no injury and 100 corresponds to complete kill.

[3] = system: Polygonum convolvulus (Buckwheat, wild); test: as above; settings: wheat cropping systems, postemergence spray, 35 g ae/ha, 21 DAA
Protocol: as §1, §2, §3

[4] = system: Matricaria chamomilla (Mayweed, wild); test: as above; settings: wheat cropping systems, postemergence spray, 35 g ae/ha, 21 DAA
Protocol: as §1, §2, §3

SMILES	GR50 [1] [g ae/ha]	GR80 [1] [g ae/ha]	GR90 [1] [g ae/ha]	Visual Injury (%) SINAR [2] [%]	Visual Injury (%) POLCO [3] [%]	Visual Injury (%) MATCH [4] [%]	pest or weed control at 8.75 g/ha [1] [%]
COc1c(Cl)ccc(-c2nc(C(=O)OCc3ccccc3)c(Cl)c(N)c2F)c1F [Compound 1, benzyl 4-amino-3-chloro-6-(4-chloro-2-fluoro-3-methoxyphenyl)-5-fluoropicolinate]	2.4	7.8	14.4	–	–	–	–
COc1c(Cl)ccc(-c2cc(N)c(Cl)c(C(=O)OCc3ccccc3)n2)c1F [Compound 39]	–	–	–	95	95	95	–
Nc1c(F)c(-c2ccc(C3CC3)cc2)nc(C(=O)OCc2ccccc2)c1Cl [Compound 42, benzyl 4-amino-3-chloro-6-(4-cyclopropylphenyl)-5-fluoropicolinate]	–	–	–	93	95	–	85
COC(=O)c1nc(-c2ccc(C3CC3)cc2)c(F)c(N)c1Cl [Compound B, methyl 4-amino-3-chloro-6-(4-cyclopropylphenyl)-5-fluoropicolinate]	–	–	–	70	62	–	50
COC(=O)c1nc(-c2ccc(Cl)c(OC)c2F)nc(N)c1OC [Compound F, methyl 6-amino-2-(4-chloro-2-fluoro-3-methoxyphenyl)-5-methoxypyrimidine-4-carboxylate, reference compound]	–	–	–	–	–	10	–
COC(=O)c1nc(-c2ccc(Cl)c(OC)c2F)cc(N)c1Cl [Compound G, methyl 4-amino-3-chloro-6-(4-chloro-2-fluoro-3-methoxyphenyl)picolinate, reference compound]	–	–	–	80	85	75	–
COC(=O)c1nc(-c2ccc(Cl)c(OC)c2F)c(F)c(N)c1Cl [E, methyl 4-amino-3-chloro-6-(4-chloro-2-fluoro-3-methoxyphenyl)-5-fluoropicolinate, reference compound]	<4.38	14.6	55.6	–	–	–	–
